Entries after “also recorded” stand apart in the source; their conditions may differ. Where two headings read alike, the source gives them in different places. Non-standard residues stand in square brackets, D forms with d. Residues, ends and D or L forms follow the SMILES beside them. *: point of attachment. Dmt = Cc1cc(O)cc(C)c1C[C@H](N)C(=O)O; Tic = O=C(O)[C@@H]1Cc2ccccc2CN1; NHtBu = CC(C)(C)N*
Assays:
δ-opioid receptors [1] = target: T1, δ-opioid receptors (Rattus norvegicus, UniProt P33533); assay: Rat brain synaptosome (P2) binding, agonist [3H]DPDPE (Example 47); settings: for Agonist K1μ/Kiδ: selectivity, Kiδ from agonist radioligand [3H]DPDPE
T1 construct: assayed with a rat brain synaptosomal preparation (P2); from tissue; host or cells: rat brain P2 synaptosomes
T1 sequence (P33533 whole entry): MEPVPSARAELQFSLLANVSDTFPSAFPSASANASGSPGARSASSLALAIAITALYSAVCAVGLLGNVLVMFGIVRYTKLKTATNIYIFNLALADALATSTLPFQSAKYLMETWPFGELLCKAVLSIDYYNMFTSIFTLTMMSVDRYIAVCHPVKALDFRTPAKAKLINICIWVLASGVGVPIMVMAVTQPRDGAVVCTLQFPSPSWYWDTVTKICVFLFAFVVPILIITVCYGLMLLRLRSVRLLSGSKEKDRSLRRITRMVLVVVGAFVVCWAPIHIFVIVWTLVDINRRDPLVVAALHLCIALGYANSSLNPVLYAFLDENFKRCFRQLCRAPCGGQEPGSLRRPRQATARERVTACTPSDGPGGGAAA

δ-opioid receptors [2] = target: T1, δ-opioid receptors; assay: Rat brain synaptosome (P2) binding, δ antagonist [3H]N,N(CH3)2-Dmt-Tic-OH (Example 47); settings: for Ki: rat brain synaptosomes (P2), δ antagonist radioligand, mean ± SEM, n in parentheses, read-out: Kiδ(nM) [^3H]N,N(CH3)2-Dmt-Tic-OH; for Antagonist K1μ/Kiδ: selectivity, Kiδ from antagonist radioligand [3H]N,N(CH3)2-Dmt-Tic-OH
Protocol: Briefly, the agonists [^3H]DPDPE (30-60 Ci/mmol, NEN-DuPont) and [^3H]DAGO (30-60 Ci/mmol, Amersham) were used to label δ and μ sites, respectively, under saturation binding conditions (2 hrs at 22° C.). Excess unlabeled peptide (2 μM) established non-specific binding levels and the labeled membranes were rapidly filtered on Whatman GF/C glass fibre filters, thoroughly washed, dried and measured for radioactivity using CytoScint (ICN, Irvine, Calif.). […] The affinity constants (Ki) were calculated according to Cheng and Prusoff (Biochem. Pharmacol. 22: 3099-3108 (1973)).

μ-opioid receptors = target: T2, μ-opioid receptors (Rattus norvegicus, UniProt P33535); assay: Rat brain synaptosome (P2) binding, [3H]DAGO (Example 47)
T2 construct: assayed with a rat brain synaptosomal preparation (P2); from tissue; host or cells: rat brain P2 synaptosomes
T2 sequence (P33535 whole entry): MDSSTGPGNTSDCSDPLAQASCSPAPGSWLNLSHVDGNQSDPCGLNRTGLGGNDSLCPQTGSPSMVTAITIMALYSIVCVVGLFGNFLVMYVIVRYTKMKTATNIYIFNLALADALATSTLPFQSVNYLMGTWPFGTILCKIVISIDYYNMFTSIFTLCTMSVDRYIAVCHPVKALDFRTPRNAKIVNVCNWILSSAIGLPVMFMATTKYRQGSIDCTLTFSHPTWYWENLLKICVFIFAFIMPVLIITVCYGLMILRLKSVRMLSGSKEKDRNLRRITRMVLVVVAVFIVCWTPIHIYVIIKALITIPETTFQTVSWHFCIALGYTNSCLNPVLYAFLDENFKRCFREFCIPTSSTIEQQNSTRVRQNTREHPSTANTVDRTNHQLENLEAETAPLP

δ receptors = δ receptors (Mus musculus, UniProt P32300)
Sequence of δ receptors (P32300 whole entry): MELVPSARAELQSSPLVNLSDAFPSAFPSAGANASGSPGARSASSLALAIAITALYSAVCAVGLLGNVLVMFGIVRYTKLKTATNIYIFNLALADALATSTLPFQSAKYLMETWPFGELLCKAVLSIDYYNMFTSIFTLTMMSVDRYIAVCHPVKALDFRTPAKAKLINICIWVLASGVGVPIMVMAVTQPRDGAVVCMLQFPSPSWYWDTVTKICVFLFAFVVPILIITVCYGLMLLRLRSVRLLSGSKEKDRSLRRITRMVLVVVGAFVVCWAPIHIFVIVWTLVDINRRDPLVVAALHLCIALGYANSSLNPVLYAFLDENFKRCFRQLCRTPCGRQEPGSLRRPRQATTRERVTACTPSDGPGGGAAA
Protocol: (§1) The functional bioactivity of the present inventive compounds was assessed using standard functional bioassays of δ and μ activity in MVD and GPI (Salvadori et al. (1995), supra; and Salvadori et al., J. Med. Chem. 36: 3748-3756 (1993)). […] Dose-response curves were obtained (Salvadori et al. (1995), supra) for both tissues. […] Data were derived from at least four independent tissue samples and dose-response curves from which the pA2 values were determined (Salvadori et al. (1997), supra) according to Arunlakshana and Schild (Br. J. Pharmacol. 14: 48-58 (1959)).

μ receptors = μ receptors (Cavia porcellus, UniProt P97266); assay: Guinea pig ileum (GPI) functional bioassay (Example 48)
Sequence of μ receptors (P97266 whole entry, looked up): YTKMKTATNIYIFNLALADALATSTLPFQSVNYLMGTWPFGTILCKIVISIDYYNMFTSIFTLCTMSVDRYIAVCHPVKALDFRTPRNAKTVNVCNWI
Protocol: as §1

hMDR-1 = hMDR-1 (Homo sapiens, UniProt P08183); assay: Calcein AM assay for Pgp in hMDR-1 transfected G-185 fibroblasts (Example 49); settings: for inhibition of hMDR-1 (Pgp), in words: calcein fluorescence; for order of inhibition of hMDR-1: rank within amide series
Sequence of hMDR-1 (P08183 whole entry): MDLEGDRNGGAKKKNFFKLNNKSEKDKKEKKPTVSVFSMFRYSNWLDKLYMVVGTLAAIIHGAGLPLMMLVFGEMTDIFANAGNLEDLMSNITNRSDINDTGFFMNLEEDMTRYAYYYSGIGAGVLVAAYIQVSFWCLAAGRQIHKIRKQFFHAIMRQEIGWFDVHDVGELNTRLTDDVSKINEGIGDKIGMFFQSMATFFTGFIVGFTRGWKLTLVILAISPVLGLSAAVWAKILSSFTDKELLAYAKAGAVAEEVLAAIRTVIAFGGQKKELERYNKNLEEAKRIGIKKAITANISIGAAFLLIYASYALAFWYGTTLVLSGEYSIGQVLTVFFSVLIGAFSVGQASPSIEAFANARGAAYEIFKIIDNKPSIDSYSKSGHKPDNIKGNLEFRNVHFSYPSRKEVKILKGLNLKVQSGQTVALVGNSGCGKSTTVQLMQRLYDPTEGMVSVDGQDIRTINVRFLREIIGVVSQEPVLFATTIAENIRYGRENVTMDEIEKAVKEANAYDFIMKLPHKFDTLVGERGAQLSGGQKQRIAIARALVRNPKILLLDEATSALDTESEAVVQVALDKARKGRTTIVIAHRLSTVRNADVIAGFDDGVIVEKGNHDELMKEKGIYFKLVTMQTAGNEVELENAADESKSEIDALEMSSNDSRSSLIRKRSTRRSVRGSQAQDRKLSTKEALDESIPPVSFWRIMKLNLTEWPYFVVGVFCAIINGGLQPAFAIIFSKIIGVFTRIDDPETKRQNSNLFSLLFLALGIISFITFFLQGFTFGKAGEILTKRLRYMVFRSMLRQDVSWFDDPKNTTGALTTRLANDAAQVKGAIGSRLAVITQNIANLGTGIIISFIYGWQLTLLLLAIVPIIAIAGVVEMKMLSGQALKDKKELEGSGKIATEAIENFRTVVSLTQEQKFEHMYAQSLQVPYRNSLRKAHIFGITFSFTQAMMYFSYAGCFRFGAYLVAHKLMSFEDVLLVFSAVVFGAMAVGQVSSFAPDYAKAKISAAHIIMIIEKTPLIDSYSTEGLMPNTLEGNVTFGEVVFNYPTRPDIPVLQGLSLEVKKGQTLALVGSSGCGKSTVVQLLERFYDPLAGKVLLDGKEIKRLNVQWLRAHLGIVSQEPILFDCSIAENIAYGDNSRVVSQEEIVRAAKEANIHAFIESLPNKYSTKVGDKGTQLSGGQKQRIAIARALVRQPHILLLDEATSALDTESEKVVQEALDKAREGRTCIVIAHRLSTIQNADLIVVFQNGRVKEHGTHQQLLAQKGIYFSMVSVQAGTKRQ
Protocol: Stably transfected G-185 fibroblasts containing hMDR-1 and NIH 3T3 cell lines were grown to confluent monolayers in DMEM containing 4.5 g glucose/1, 10% fetal calf serum, L-glutamine, penicillin (50 units/ml), streptomycin (50 μg/ml) and 1 mM sodium pyruvate in 5% CO2 at 37° C. G-185 cells were maintained in […] colchicine.
The assay for Pgp is based on the diffusion of non-fluorescent calcein AM across the cell membrane. Calcein AM is then hydrolyzed and accumulates as the fluorescent calcein. In transfected cells expressing excess hMDR-1, Pgp extrudes calcein AM from the cell before hydrolysis occurs; inhibition of hMDR-1 results in the accumulation of intracellular calcein. Transfected G-185 cells and the NIH 3T3 cells were analyzed in triplicate using seven graded dosages of verapamil or the opioid peptides in 96-well plates. Cells (2.5×10^6/well) were incubated in 100 μl culture medium for 15 min at 37° C. and 50 μl of 1 μM calcein AM in PBS, plus 50 μl of verapamil or one of the present inventive compounds in PBS, or 100 μl of PBS alone (control) were added. Cells were mixed and incubated for 15 min at 37° C., then centrifuged for 5 min at 2,000×g, and then washed three times in 200 μl PBS. Cell pellets were resuspended in 200 μl PBS and transferred to white Microfluor Plates (Nunc, Copenhagen, Denmark) in order to measure calcein-specific fluorescence (494 nm absorption; 517 nm emission). Internal controls were carried out with each experiment using verapamil and PBS in order to compare the consistency between cell preparations. Means±SE (error bars) were determined and plotted using Prism™ (GraphPad, San Diego, Calif.).

[3] = rat brain synaptosomes (P2), mean ± SEM, n in parentheses, read-out: Kiδ(nM) [^3H]DPDPE
[4] = rat brain synaptosomes (P2), mean ± SEM, n in parentheses, read-out: Kiμ (nM) [^3H]DAGO
[5] = MVD pA2 (range), δ antagonism against deltorphin C, mean (range)
[6] = δ antagonism, Ke = antilog of pA2
[7] = MVD Ke(nM), δ antagonism, Ke = antilog of pA2

Cc1cc(O)cc(C)c1C[C@@H](C(=O)N1Cc2ccccc2C[C@H]1C(=O)O)N1CCCCC1 [Compound 3, [des-NH2-α-piperidine-1-yl]-Dmt-Tic-OH]
Ki (δ-opioid receptors [1]; [3]): 1.18 ± 0.1 nM
Agonist K1μ/Kiδ (δ-opioid receptors [1]): 1728
Ki (δ-opioid receptors [2]): 0.74 ± 0.3 nM
Antagonist K1μ/Kiδ (δ-opioid receptors [2]): 2755
Ki (μ-opioid receptors; [4]): 2040 ± 264 nM
bioactivity on MVD (δ), in words (δ receptors): detrimental for all bioactivity measurements on MVD
Kb (δ receptors; [5]): 49 nM
MVD Ke (δ receptors; [6]): 49 nM
EC50 (μ receptors): > 10000 nM
inhibition of hMDR-1 (Pgp), in words (hMDR-1): inactive

CNC(=O)[C@@H]1Cc2ccccc2CN1C(=O)[C@@H](N)Cc1c(C)cc(O)cc1C [Compound 7, H-Dmt-Tic-NHMe] (H-[Dmt]-[Tic]-NHMe)
Ki (μ-opioid receptors; [4]): 85.5 ± 7.7 nM
EC50 (δ receptors): 21200 nM
bioactivity on MVD (δ), in words (δ receptors): extraordinarily weak δ agonism
Kb (δ receptors; [7]): > 10000 nM
MVD pA2 (range) (δ receptors; δ antagonism against deltorphin C, mean (range)): —^d
EC50 (μ receptors): > 10000 nM
Kb (μ receptors): 1150 nM
bioactivity on GPI (μ), in words (μ receptors): low μ antagonism
GPI Ke (μ receptors; μ antagonism): 1.15 µM
inhibition of hMDR-1 (Pgp), in words (hMDR-1): inactive

Cc1cc(O)cc(C)c1C[C@H](N)C(=O)N1Cc2ccccc2C[C@H]1C(=O)NC(C)(C)C [Compound 9, H-Dmt-Tic-NH-tBu] (H-[Dmt]-[Tic]-NHtBu)
δ/μ selectivity, in words (δ-opioid receptors [1]; from Table II binding): essentially nonselective
Ki (δ-opioid receptors [1]; [3]): 0.43 ± 0.07 nM
Agonist K1μ/Kiδ (δ-opioid receptors [1]): 14
Ki (δ-opioid receptors [2]): 0.93 ± 0.15 nM
Antagonist K1μ/Kiδ (δ-opioid receptors [2]): 6
Ki (μ-opioid receptors; [4]): 5.96 ± 0.82 nM
bioactivity on MVD (δ), in words (δ receptors): highest δ-antagonist functional bioactivities
Kb (δ receptors; [7]): 1.74 nM
Kb (δ receptors; [5]): 5.75 nM
EC50 (μ receptors): 1040 nM
order of inhibition of hMDR-1 (hMDR-1): (compound 9)>>H-Dmt-Tic-NHMe (compound 7) (inactive)

Cc1cc(O)cc(C)c1C[C@@H](C(=O)N1Cc2ccccc2C[C@H]1C(=O)NC(C)(C)C)N(C)C [Compound 14, N,N(Me)2-Dmt-Tic-NH-tBu]
Ki (μ-opioid receptors; [4]): 226 ± 21 nM
bioactivity on MVD (δ), in words (δ receptors): modest δ antagonism
Kb (δ receptors; [5]): 14.1 nM
MVD Ke (δ receptors; [6]): 14.1 nM
EC50 (μ receptors): > 10000 nM
Kb (μ receptors): 300 nM
bioactivity on GPI (μ), in words (μ receptors): weak μ antagonism
order of inhibition of hMDR-1 (hMDR-1): (compound 14)>H-Dmt-Tic-Ala-NH-tBu (compound 20)

Cc1cc(O)cc(C)c1C[C@H](N)C(=O)N1Cc2ccccc2C[C@H]1C(=O)N[C@@H](C)C(=O)NC12CC3CC(CC(C3)C1)C2 [Compound 21, H-Dmt-Tic-Ala-NH-1-adamantane]
Ki (μ-opioid receptors): 2.52 ± 0.56 nM
bioactivity on MVD (δ), in words (δ receptors): highest δ-antagonist functional bioactivities
Kb (δ receptors; [5]): 0.513 nM
MVD Ke (δ receptors; [6]): 0.51 nM
EC50 (μ receptors): 1000 nM
order of inhibition of hMDR-1 (hMDR-1): (compound 21)>>N,N(Me)2-Dmt-Tic-OH (inactive)

C[C@@H](NC(=O)[C@@H](N)Cc1ccc(O)cc1)C(=O)N[C@@H](Cc1ccccc1)C(=O)NCC(=O)N[C@@H](Cc1ccc(O)cc1)C(=O)N1CCC[C@H]1C(=O)N[C@@H](CO)C(N)=O [Dermorphin, H-Tyr-D-Ala-Phe-Gly-Tyr-Pro-Ser-NH2]
IC50 (μ receptors): 1.82 nM
inhibition of hMDR-1 (Pgp), in words (hMDR-1): lack of inhibition
inhibition of hMDR-1 (Pgp), in words (hMDR-1; listed as DER): inactive

Cc1cc(O)cc(C)c1C[C@@H]1NC(=O)[C@@H]2Cc3ccccc3CN2C1=O [cyclo (DMT-Tic), reference compound]
Ki (δ-opioid receptors [1]): 9.58 ± 1.98 nM
Agonist K1μ/Kiδ (δ-opioid receptors [1]): 635 ± 69 (3-5)
Antagonist K1μ/Kiδ (δ-opioid receptors [2]): no activity
Kiμ (nM) [^3H]DAGO (μ-opioid receptors; rat brain synaptosomes (P2), mean ± SEM, n in parentheses): no activity
inhibition of hMDR-1 (Pgp), in words (hMDR-1): moderately effective inhibitor

COc1ccc(CCN(C)CCCC(C#N)(c2ccc(OC)c(OC)c2)C(C)C)cc1OC (stereo not drawn) [verapamil]
maximum effective dose (hMDR-1): 75 to 100 µM

H-Dmt-Sar-Bid [DSB]
inhibition of hMDR-1 (Pgp), in words (hMDR-1): inactive

H-Tyr-D-Ala-Gly-N-MePhe-Met(O)-ol [DAMME]
inhibition of hMDR-1 (Pgp), in words (hMDR-1): inactive; also recorded: lack of inhibition

deltorphin
inhibition of hMDR-1 (Pgp), in words (hMDR-1): lack of inhibition

— US6916905B2, “Dmt-Tic di-and tri-peptidic derivatives and related compositions and methods of use” (The United States of America as represented by the …, priority 2000, dated 2005)
